Source: patent US9234242B2, “Methods for treating depression using NCAM peptide mimetics” (THE BOARD OF THE TRUSTEES OF THE LELAND STANFORD JUNIOR …, priority 2005, dated 2016)

Experiments:
[1] = test system: genes associated with neural plasticity; assay: Long-term changes in hippocampal gene expression (histochemical and RNA expression assays); format: in vivo; conditions: adult rats, 20 ng/g s.c. the day after birth
Experimental: (§1) Sprague-Dawley rats were injected with either vehicle or FGF2 (20 ng/g, s.c.) the day after birth and sacrificed after Morris water maze testing as adults. We assessed changes in gene expression using both a candidate approach and a gene discovery approach with laser-capture microdissection of the dentate gyrus followed by microarray analyses.

Sprague-Dawley rats = assay: Morris water maze learning and memory test in adults after early postnatal injection; format: in vivo; conditions: 20 ng/g s.c. the day after birth, tested as adults; vehicle-injected rats 25 seconds
Experimental: as §1

Rodents [2] = assay: Elevated plus maze (EPM) after microinjection; format: in vivo, rats; conditions: microinjection (intracerebroventricular), versus controls
Excerpt: (§2) In another embodiment, the present invention provides methods for altering the behavioral profiles of rats by injecting the rats with FGF2, an NCAM peptide mimetic, and a peptide inhibitor of FGF receptors. Both FGF2 and the NCAM peptide mimetic have antidepressant-like effects in the forced swim test when injected intracerebroventricularly. […] In one embodiment of the invention, ligands that activate FGF receptors are used for their antidepressant effects in the therapeutic treatment of individuals with MDD.
(§3) This is indicative of less depression-like behavior in FGF2 animals.
(§4) Again, this is an index of less depression-like behavior. This is also in the same direction as the FGF2 data, consistent with the fact that both FGF2 and NCAM interact with the FGF receptor.
(§5) These observations are nevertheless consistent with the conclusions drawn from the microinjection studies above.

rats = assay: Elevated plus-maze (EPM) and light-dark (LD) anxiety test after chronic administration; format: in vivo; conditions: 5 ng/g i.p. every 48 hours for 3 weeks
Experimental: Anxiety disorders have a high comorbidity with other neuropsychiatric disorders including Major Depression (MD). […] Rats were placed into “high anxiety” (LR) or “low anxiety” (HR) groups based on their behavior in a variety of motor and behavioral tests. Both groups of animals were administered either FGF2 (5 ng/g) or vehicle by intraperitoneal injection every 48 hours for 3 weeks. One day after the last FGF2 injection, all animals were tested in the elevated plus-maze (EPM) and light-dark (LD) anxiety test.
The apparatus for the EPM test is constructed of black Plexiglass with […] (70 cm from the floor, 45 cm long, and 12 cm wide). Illumination is provided by a 40-watt desk lamp facing a wall and placed behind one of the closed arms. The scientists put the animal inside the system. Animals that are less anxious spend more time in the open arms whereas animals that are more anxious spend less time in the open arms.
The LD test is conducted in a 30×60×30-cm Plexiglas shuttle box with a translucent cover. Each box is divided into two equal-sized compartments by a wall with a 12 cm-wide open door. One compartment is painted white and brightly illuminated, and the other is painted black with very dim light. The time each rat spends in each compartment is monitored by rows of five photocells located 2.5 cm above the grid floor of each compartment. […]

[3] = test system: FGFR2 and FGFR3 exon IIIc:IIIb splice variant ratio; assay: Real time RT-PCR of exon IIIc:IIIb splice variant ratio in frontal cortex, chronic unpredictable stress; format: in vivo, rats; conditions: 5 ng/g i.p. every 48 hours for three weeks
Experimental: Half of the rats (n=12) were administered vehicle (0.1M PBS with 100 μg/mL bovine serum albumin), and the other half (n=12) were administered human recombinant FGF2 dissolved in vehicle in 5 ng/g dosages (Sigma, St. Louis, Mo.) every 48 hours for three weeks. All treatments were injected intra-peritoneally. During the same three week period as the FGF2 treatments, the vehicle group was either handled (n=6) or exposed to CUS (n=6). Likewise, the FGF2 injected group was either handled (n=6) or exposed to CUS (n=6). […]
Gross dissections were performed on the frontal cortex of all brains. […] Using the Bioanalyzer's concentration readings, the samples were normalized to 25 ng/μL of total RNA per subject and stored at −80° C.
cDNA was synthesized using the iScript cDNA Synthesis Kit (Bio-Rad, Hercules, Calif.). […] The double-stranded cDNA solutions were then analyzed for quality and concentration using Invitrogen's Quant-iT PicoGreen dsDNA kit. […] The fluorescently labeled samples were analyzed with a 1420 Victor^2 Multilabel Counter (EG&G Wallac, Wellesley, Mass.) using the basic Fluorescein protocol. […]
Sequences for rat FGFR2 and FGFR3 exons were obtained from NCBI's Entrez Gene database (www.ncbi.nlm.nih.gov) and the Ensembl-Rat gene database (www.ensembl.org). […] FGFR2 and FGFR3 exon sequences were analyzed for secondary structure using the Mfold nucleic acid folding web server. […]

Rodents [4] = assay: Forced swim test (FST) after microinjection; format: in vivo, rats; conditions: microinjection (intracerebroventricular), versus controls
Excerpt: as §2, §3, §4, §5

Substance | expression of CCK [1] | expression of GAP-43 [1] | expression of NCAM [1] | expression of Rgs4 [1] | expression of SST [1] | expression of Vgf [1] | expression of trkB [1] | time on average to find a hidden platform in Morris Water maze test (Sprague-Dawley rats) [s] | time in the closed arms of the EPM (Rodents [2]) | time in the open arms of the EPM (Rodents [2]) | anxiety-reducing effects in innately more anxious (LR) rats (rats; LR versus HR rats) | anxiety versus animals who receive vehicle (rats; time in the light compartment (FIG. 9)) | effect on the magnitude of ratio changes caused by stress [3] | effect on the IIIc:IIIb ratio in the NS or S group ([3]; P>0.1) | immobility in the FST (Rodents [4]) | swimming in the FST (Rodents [4]) | time in the center quadrant of the EPM (Rodents [2]) | climbing in the FST (Rodents [4])
FGF2: FGF receptor ligand; human recombinant FGF2 (Sigma) in Example 6 | increased | increased | decreased | increased | increased | increased | increased | 20 | significantly more time | less time | clearly more pronounced | less anxious | nor did it significantly affect | did not alter the IIIc:IIIb ratio significantly | less immobility | more swimming |  | 
FGF system peptide inhibitor: FGF system peptide inhibitor, amino acid sequence=HFKDPKRLY; SEQ ID NO:35 (FGF system peptide inhibitor) [reference compound] |  |  |  |  |  |  |  |  | less time | equal time |  |  |  |  | more immobility | less swimming | significantly more time | significantly less climbing
NCAM: NCAM (FGL peptide), amino acid sequence=EVYVVAENQQGKSKA (SEQ ID NO:34); interacts with the FGF receptor (NCAM (FGL peptide)) |  |  |  |  |  |  |  |  | more time (although not significantly more time) | less time |  |  |  |  | less immobility |  | significantly less time | 
